From patent US20130225529A1, “PHOSPHO-ESTER DERIVATIVES AND USES THEREOF” (priority 2012, published 2013)
Like-named read-outs stand apart in the source and are kept apart here.

How the values were obtained:
[1] = Pharmacokinetics after inhalational administration of PS; assay type: in vivo, mice; settings: after 8 min inhalation, label = analyte
[2] = Pharmacokinetic study of phosphosulindac amide and sulindac, single oral dose; assay type: in vivo, mice; settings: mouse, plasma, label = analyte
porcine liver esterases = experiment: Stability of PTI to purified porcine liver esterases; settings: 4 IU/ml porcine liver esterase, 20 min
liver esterases = experiment: as above; settings: pig, half-life
[3] = Stability of PTI in complete media containing 10% serum; settings: after 24 h
PGE2 production = PGE2 production by A549 cells; assay type: cell-based, human
COX-2 = COX-2 (Homo sapiens, UniProt P35354); experiment: COX fluorescent inhibitor screening assay, COX-2; assay type: biochemical
Chain of COX-2 (P35354 18-604): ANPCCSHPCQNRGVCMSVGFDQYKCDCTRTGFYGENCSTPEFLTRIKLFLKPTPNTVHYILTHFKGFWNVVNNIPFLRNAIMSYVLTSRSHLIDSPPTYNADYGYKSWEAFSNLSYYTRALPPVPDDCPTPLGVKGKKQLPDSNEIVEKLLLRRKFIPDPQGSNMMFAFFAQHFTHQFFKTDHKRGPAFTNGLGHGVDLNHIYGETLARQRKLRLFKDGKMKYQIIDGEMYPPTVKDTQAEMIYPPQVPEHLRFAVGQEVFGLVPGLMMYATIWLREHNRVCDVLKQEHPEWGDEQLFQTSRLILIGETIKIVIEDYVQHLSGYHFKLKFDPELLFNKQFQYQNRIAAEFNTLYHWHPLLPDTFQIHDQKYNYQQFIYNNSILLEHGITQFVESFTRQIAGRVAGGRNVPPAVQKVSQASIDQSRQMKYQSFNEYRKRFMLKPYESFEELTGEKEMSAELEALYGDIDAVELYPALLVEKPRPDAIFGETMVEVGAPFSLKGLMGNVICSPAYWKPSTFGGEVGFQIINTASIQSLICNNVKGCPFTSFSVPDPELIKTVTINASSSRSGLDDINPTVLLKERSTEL

MDA-MB-231 = experiment: Cell viability (MTT), MDA-MB-231; assay type: cell-based; settings: Homo sapiens, MDA-MB-231, 72 h
[4] = Cardiotoxicity, heart tissue histology; assay type: in vivo, mice; settings: treated for 1.5 months, H&E
From the text: Heart tissue sections from mice treated with PTI for 1.5 months were examined and scored histologically, following H&E staining and light microscopy for tissue damage and for the presence of inflammatory cells.

A549 cells [5] = experiment: Cell proliferation by BrdU staining; assay type: cell-based, human; settings: 60 μM (indomethacin equimolar)
SW480 cells = experiment: Cell cycle by PI staining; assay type: cell-based, human; settings: 1×IC50 PTI; indomethacin at equimolar concentration; control 56.8
A549 cells [6] = experiment: Apoptosis by annexin V and PI staining; assay type: cell-based, human; settings: 72 h, control 7.5%
Procedure: After the A549 cells were treated with the test drug in 6-well plates for 72 h, all cell populations (suspended and attached) were collected and stained with annexin V-FITC and propidium iodide (PI) (Invitrogen, Carlsbad, Calif.) for 15 min. Annexin V-FITC and PI fluorescence intensities were analyzed by flow cytometry with a FACScalibur. Annexin V(+)/PI(−) cells are early apoptotic cells; annexin V(+)/PI(+) cells are late apoptotic cells; and annexin V(−)/PI(+) cells are necrotic cells.

[7] = test system: Salmonella typhimurium (TA98 and TA100); experiment: Salmonella plate incorporation mutagenicity assay; settings: 1.5 to 5000 μg/plate, with or without rat liver S9
SW480 colon cancer cells = experiment: SW480 colon cancer xenografts, prevention protocol, PTI; assay type: in vivo, mice; settings: oral gavage; PTI 10 mg/kg/d, indomethacin 2 mg/kg/d; end of study
A549 cells [8] = experiment: Cellular uptake of PTI and indomethacin; assay type: in vitro ADME, human
Procedure: A549 cells were seeded in […] plates and allowed to grow as a monolayer. […] The incubation was terminated by washing the cell monolayer with complete medium and PBS. The cells were harvested by scraping, extracted by two-fold volume of acetonitrile and centrifuged at 13,000 rpm for 5 min. Drug levels were determined by HPLC.

COX-1 = molecular target: T1, COX-1 (Ovis aries, UniProt P05979); experiment: COX fluorescent inhibitor screening assay, COX-1; assay type: biochemical
T1 construct: purchased Cayman Chemical Co
T1 sequence (P05979 25-600): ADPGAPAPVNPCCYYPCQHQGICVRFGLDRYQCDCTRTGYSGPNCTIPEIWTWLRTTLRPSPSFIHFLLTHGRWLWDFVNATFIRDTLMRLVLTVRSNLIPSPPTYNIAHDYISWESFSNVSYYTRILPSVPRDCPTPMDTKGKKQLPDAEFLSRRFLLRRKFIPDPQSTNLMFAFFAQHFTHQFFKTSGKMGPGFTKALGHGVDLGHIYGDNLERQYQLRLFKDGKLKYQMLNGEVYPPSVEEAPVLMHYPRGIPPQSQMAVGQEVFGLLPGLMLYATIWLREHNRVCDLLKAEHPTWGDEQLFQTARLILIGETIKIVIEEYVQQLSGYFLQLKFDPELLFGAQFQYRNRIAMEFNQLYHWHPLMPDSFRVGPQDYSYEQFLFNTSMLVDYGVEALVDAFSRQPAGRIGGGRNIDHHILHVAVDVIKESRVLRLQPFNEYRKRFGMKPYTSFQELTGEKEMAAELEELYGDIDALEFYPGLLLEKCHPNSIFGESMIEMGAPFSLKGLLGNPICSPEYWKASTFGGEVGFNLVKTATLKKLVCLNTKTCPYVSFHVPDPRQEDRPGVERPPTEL

[9] = test system: A549 human non-small cell lung cancer xenografts; experiment: A549 lung cancer xenografts, treatment protocol, PTI; assay type: in vivo, mice; settings: 2 weeks, vs control
Procedure: Lung cancer treatment protocol: A549 cells (1.5×106) suspended in 100 μl of PBS (25% Hydrogel) were injected subcutaneously into both the left and right flanks of 5-6-week old female NOD SCID mice (Taconic Farms, Germantown, N.Y.). When the average tumor volume reached 100 mm3, the mice were divided into 3 groups: vehicle, PTI 10 mg/kg/d, and PTI 15 mg/kg/d (n=10/group); treatment lasted 2 weeks. At the end of the treatment, animals were euthanized and the xenografts were harvested.

[10] = Pharmacokinetics of PTI and indomethacin, single i.p. dose
[11] = Gastrointestinal toxicity in rats
p65 subunit of NF-κB = experiment: NF-κB activation in A549 xenografts (p-p65 Ser276); assay type: in vivo, mice; settings: vs controls
Procedure: (§1) Staining for PCNA and p-p65 (Ser276) was performed as described. Apoptosis was determined immunohistochemically by the terminal deoxynucleotidyl transferase-mediated deoxyuridine triphosphate-biotin nick end-labeling (TUNEL) assay.
To further explore the mechanism of action of PTI, we investigated the activation of NF-κB in the A549 lung tumor xenografts from the control and PTI-treated groups, by determining Ser276 phosphorylation of the p65 subunit of NF-κB. A shown in FIG. 28, compared to controls, PTI decreased the levels of p-p65 Ser276 in tumor xenografts by 90.0% (p=0.004).

A549 xenografts = experiment: Immunohistochemistry of A549 xenografts (PCNA, TUNEL); assay type: in vivo, mice
Procedure: as §1

HT29 = experiment: Cell viability (MTT), HT29; assay type: cell-based; settings: Homo sapiens, HT-29; HT29, 72 h
[12] = mouse, in vivo, ip
skin papillomas = experiment: DMBA/TPA-induced skin papillomas in FVB mice; assay type: in vivo
From the text: This initiation-promotion protocol leads to papillomas by wk 10, and in a fraction of the mice to SCC by wk 20. […] Criteria similar to those used for human papilloma classification were applied to assess disease progression: hyperplasia→papilloma (Pap 1-3)→microinvasive SCC (M1-3)→invasive SCC. On wk 20, the study was terminated.

β-catenin signaling = experiment: β-catenin transcriptional activity (TOPflash) in HEK293T cells; assay type: cell-based; settings: 5 μM each; control 1.23±0.11
U87 cells = experiment: 24-h growth inhibition of U87 glioblastoma cells; assay type: cell-based; settings: Homo sapiens, U-87 MG; U87, 24 h
Procedure: U87 cells were treated with sulindac and ibuprofen as well as with the compounds. U87 is a human primary glioblastoma cell line, formally known as U-87 MG. This cell line has epithelial morphology, and is one of the most frequently used glioblastoma cell lines.

[13] = test system: A549 human non-small lung cancer cells; experiment: Orthotopic A549 lung tumor model in nude mice; assay type: in vivo; settings: for reduction based on lung tumor weight / lung weight / reduction of lung cancer based on fluorescence: 200 mg/kg once a week for 8 weeks
[14] = test system: AGS human gastric cancer cells; assay type: in vivo, mice; settings: i.p. in corn oil, 3 weeks; PSA-B 200, PSA-G 200, PIA-B 160, PVA-T 100 mg/kg
[15] = assay type: in vivo, mice; settings: 55° C. hot plate, 30 min after single i.p. dose; 100 mg/kg, PI-PEG 1,600 mg/kg; control 1.91 ± 0.46
[16] = Biodistribution of liposomal phospho-ibuprofen amide in mice; assay type: in vivo
[17] = test system: A431 human squamous cell carcinoma cells; assay type: in vivo, mice; settings: hydrogel, topical, 2 weeks, estimated 80 mg/kg
A431 skin cancer cells = experiment: Cellular uptake in A431 cells (HPLC); settings: 100 μM for 1 h
U87 glioblastoma cells = experiment: Apoptosis (annexin V), PV and PGIA; assay type: cell-based, human; settings: 24 h; PGIA 200 μM, PV 40 μM, alone or together
Procedure: Apoptosis: Cells (1.0×10^5 cells/well) were treated with or without PV, PGIA or valproic acid (VPA) for 24 or 48 h. After treatment, cells were trypsinized, stained with Annexin V-FITC (100× dilution, Invitrogen) and propidium iodide (PI) 0.5 μg/ml and the fluorescence intensity was analyzed by FACScaliber.

[18] = BALB/c nude, mouse, inhaled or intranasal, plasma
[19] = 66 mg/kg, single oral dose of sulindac equimolar to PSA, read-out: AUC0-24 h, sulindac administration

## CC1=C(CC(=O)O)c2cc(F)ccc2/C1=C\c1ccc(S(C)(=O)=O)cc1 [Sulindac sulfone 147, sulindac sulfone]
[1]; BALB/c nude, mouse, inhaled or intranasal, lung, read-out: Tmax
  Tmax: 8 h
[1]; [18]
  AUC: 142 µM·h
  Cmax: 10.4 µM
[1]; BALB/c nude, mouse, inhaled or intranasal, plasma, read-out: Tmax
  Tmax: 8 h
[2]; [19]
  AUC(0-t): 93.4 µM·h

## CCOP(=O)(OCC)OCCc1ccc(OC(=O)Cc2c(C)n(C(=O)c3ccc(Cl)cc3)c3ccc(OC)cc23)cc1 [PTI, [1-(4-Chloro-benzoyl)-5-methoxy-2-methyl-1H-indol-3-yl]-acetic acid 4-[2-(diethoxy-phosphoryloxy)-ethyl]-phenyl ester]
Porcine liver esterases
  intact PTI remaining: approximately 20%
Liver esterases; 2 IU/ml esterase
  half-life: 5 min
Liver esterases; 4 IU/ml esterase
  half-life: 2 min
[3]
  hydrolyzed: 40%
PGE2 production
  PGE2 levels induced by the calcium ionophore A23187: prevented the increase in PGE2 levels
COX-2
  selectivity for COX-2 over COX-1: 12.6 fold
COX-2; purified COX-2
  IC50: 71.7 µM
MDA-MB-231
  IC50: 23 µM
[4]
  cardiotoxicity: No differences in cardiotoxicity
A549 cells [5]
  decrease of proportion of BrdU positive cells: 96%
SW480 cells
  proportion of cells in G0/G1 phase: 69.7%
A549 cells [6]; 1.5×IC50
  annexin V+ cells: 12.3%
A549 cells [6]; 2×IC50
  annexin V+ cells: 71.4%
[7]
  genotoxicity (reverse mutations): no significant genotoxicity
SW480 colon cancer cells
  reduction of tumor growth: 69%
A549 cells [8]; 6 h incubation, 50 to 200 μM
  cellular uptake, fold greater than indomethacin: about 200 fold
A549 cells [8]; 16 h
  cellular uptake, fold greater than indomethacin: about 230 fold
COX-1
  IC50: 905 µM
[9]; 10 mg/kg/d
  reduction of tumor volume: 68%
[9]; 15 mg/kg/d
  reduction of tumor volume: 91%
[10]; mouse, in vivo, ip, 100 mg/kg
  Cmax: 46 µM
[10]; single i.p. 100 mg/kg PTI
  plasma detectability of PTI: undetectable at 4 h
  time of maximum concentration of PTI: 2 h
[11]; PTI vs indomethacin
  reduction in gastrointestinal toxicity: 60%
[11]; gavage 4 days, indomethacin 4.75 mg/kg/day, PTI 10 mg/kg/day
  rats that developed ulcers: 40%
p65 subunit of NF-κB
  decrease of p-p65 Ser276 levels in tumor xenografts: 90.0%
A549 xenografts; PTI-treated tumors, controls 59.7±7.5%
  cell proliferation (PCNA): 40.2±4.5%
A549 xenografts; control 3.3±0.3%
  apoptosis index (TUNEL): 5.8±1.2%
A549 xenografts; vs control
  increase of apoptosis index: 75.8%
HT29
  IC50: 87 µM

## COc1ccc2c(c1)c(CC(=O)O)c(C)n2C(=O)c1ccc(Cl)cc1 [Indomethacin, indomethacin, reference compound]
PGE2 production
  PGE2 levels induced by the calcium ionophore A23187: prevented the increase in PGE2 levels
[12]
  AUC0-24 h (for PTI: PTI plus its metabolite): 500 µM·h
  peak plasma level: 127 µM
  time of peak plasma level: 1 h
A549 cells [5]
  decrease of proportion of BrdU positive cells: 15%
SW480 cells
  proportion of cells in G0/G1 phase: 57.7%
SW480 colon cancer cells
  reduction of tumor growth: no significant effect

## NCCC[C@](N)(C(=O)O)C(F)F [DFMO, α-difluoromethylornithine, reference compound]
Skin papillomas; oral
  papilloma multiplicity, oral administration: failed to reduce papilloma multiplicity
Skin papillomas; topical
  reduction of tumor burden (average tumor volume/mouse): ~90%
  thickness of the epidermis: partial effect
Skin papillomas; topical application
  reduction of tumor number (papillomas/mouse): merely stabilized disease progression
β-catenin signaling
  luciferase/renilla activity: 1.18±0.01

## CC1=C(CC(=O)O)c2cc(F)ccc2/C1=C\c1ccc([S+](C)[O-])cc1 (centres unmarked) [Sulindac]
[1]; [18]
  AUC: 49.5 µM·h
U87 cells
  IC50: ≥ 1000 µM
[2]; [19]
  AUC(0-t): 385 µM·h

## CCOP(=O)(OCC)OCCCCNC(=O)C(C)c1ccc(CC(C)C)cc1 (centres unmarked) [Phospho-ibuprofen amide 105, Phosphoric acid diethyl ester 4-[2-(4-isobutyl-phenyl)-propionylamino]-butyl ester]
[13]
  reduction based on lung tumor weight / lung weight: 80%
  reduction of lung cancer based on fluorescence: 95%
[13]; liposomal, I.V.
  lung cancer on fluorescence images of lungs: essentially eliminated lung cancer
[14]
  tumor growth inhibition: 33.8%
[15]
  latency values (mean±SD): 3.80 ± 0.46 s
[16]; compared with corresponding carboxylic ester compound
  blood and tissue levels of intact compound: significant blood and tissue levels of intact compound
[16]; liposomal, single 200 mg/kg i.v., 1 h
  biodistribution in major organs: preferentially accumulated in lungs
[17]
  tumor growth inhibition: 51.5%

## CC(C)Cc1ccc(C(C)C(=O)O)cc1 (centres unmarked) [Ibuprofen, reference compound]
[13]
  reduction based on lung tumor weight / lung weight: 19%
  reduction of lung cancer based on fluorescence: 57%
U87 cells
  IC50: ≥ 1000 µM

## CSc1ccc(/C=C2/C(C)=C(CC(=O)O)c3cc(F)ccc32)cc1 [Sulindac sulfide 146, sulindac sulfide]
[1]; [18]
  AUC: 66.9 µM·h
[1]; lung
  Tmax: 4 h
[1]; plasma
  Tmax: 4 h
[2]; [19]
  AUC(0-t): 691 µM·h
[2]; single oral dose 100 mg/kg PSA, read-out: AUC0-24 h, PSA administration
  AUC(0-t): 17.9 µM·h

## CCOP(=O)(OCC)OCCCCOC(=O)C(C)c1ccc(CC(C)C)cc1 (centres unmarked) [PI 132]
U87 cells
  IC50: 98 µM
A431 skin cancer cells
  fold increase of cellular level over the other two compounds: at least 300 fold
A431 skin cancer cells; limit of detection 2.5 pmol
  cellular content (cellular extract): 750 pmol
[15]
  latency values (mean±SD): 8.53 ± 0.81 s

## CCCC(CCC)C(=O)OCCCCOP(=O)(OCC)OCC [PV]
U87 glioblastoma cells
  fold-increase of annexinV (+) cells: 3.0 fold
